According to patent US11505548B2, “Heterocyclic compounds and their use for treatment of helminthic infections and diseases” (Celgene Corporation, priority 2019, dated 2022):
Where two headings read alike, the source gives them in different places.

Test system: Onchocerca gutturosa Adult Male Worms
Assay: Onchocerciasis in vitro screening model, worm motility score
Assay type: cell-based
Settings: read-out: O. gutturosa activity level (IC50 or MED)
[1] = Onchocerca gutturosa, Table 1 O. gutturosa, levels A/B/C, motility or MTT readout not specified
[2] = in vitro, Onchocerca gutturosa adult male worms, class A/B/C

| IC50 [2] | SMILES | IC50 [1] |
| --- | --- | --- |
|  | Cc1cccnc1Nc1nc(-c2cc(C(=O)N(C)C)ccn2)ns1 [Compound 22, N,N-dimethyl-2-(5-(3-methylpyridin-2-ylamino)-1,2,4-thiadiazol-3-yl)isonicotinamide] | 500 to 5000 nM |
| 500 to 5000 nM | CC(=O)N(C)c1cc(C(F)(F)F)cnc1Nc1nc(-c2cc3c(cn2)N(C)C(=O)C3(C)C)ns1 [Compound 287, N-methyl-N-(5-(trifluoromethyl)-2-(3-(1,3,3-trimethyl-2-oxo-2,3-dihydro-1H-pyrrolo[2,3-c]pyridin-5-yl)-1,2,4-thiadiazol-5-ylamino)pyridin-3-yl)acetamide] |  |
|  | CC(=O)Nc1cccnc1Nc1nc(-c2ccc(OC(C)C)cn2)ns1 [Compound 161, N-(2-(3-(5-isopropoxy-pyridin-2-yl)-1,2,4-thiadiazol-5-ylamino)pyridin-3-yl)acetamide] | 500 to 5000 nM |
| 500 to 5000 nM | Cc1cccnc1Nc1nc(-c2ccc(C#N)cn2)ns1 [Compound 278, 6-(5-(3-methylpyridin-2-ylamino)-1,2,4-thiadiazol-3-yl)nicotinonitrile] |  |
|  | CC(C)Oc1cccnc1-c1nc(Nc2cc(C(F)(F)F)c(C(C)C)cn2)nn1C [Compound 148, N-(5-(3-isoprop-oxypyridin-2-yl)-1-methyl-1H-1,2,4-triazol-3-yl)-5-isopropyl-4-(trifluoromethyl) pyridin-2-amine] | 500 to 5000 nM |
|  | c1ccc(-c2nsc(Nc3ccc(N4CCCCC4)cn3)n2)nc1 [Cmpd 6, N-(5-(piperidin-1-yl)pyridin-2-yl)-3-(pyridin-2-yl)-1,2,4-thiadiazol-5-amine] | < 200 nM |
|  | FC(F)(F)c1cccnc1Nc1nc(-c2cc(C3CC3)ccn2)ns1 [Compound 84, 3-(4-cyclopropyl-pyridin-2-yl)-N-(3-(trifluoromethyl)pyridin-2-yl)-1,2,4-thiadiazol-5-amine] | < 200 nM |
| 500 to 5000 nM | CC(=O)N(C)c1cnc(Nc2n[nH]c(-c3cc4c(cn3)N(C(C)C)CC4)n2)c(C(F)(F)F)c1 [Compound 294, N-(6-(5-(1-isopropyl-2,3-dihydro-1H-pyrrolo[2,3-c]pyridin-5-yl)-1H-1,2,4-triazol-3-ylamino)-5-(trifluoromethyl)pyridin-3-yl)-N-methylacetamide] |  |
|  | COc1cc(C(C)C)cnc1Nc1nc(-c2ccc(OC(C)C)cn2)ns1 [Compound 166, 3-(5-isopropoxy-pyridin-2-yl)-N-(5-isopropyl-3-methoxypyridin-2-yl)-1,2,4-thiadiazol-5-amine] | < 200 nM |
| < 200 nM | COc1ccnc(-c2nsc(Nc3ncc(C(F)(F)F)cc3N(C)C(C)=O)n2)c1 [Compound 318, N-(2-(3-(4-methoxypyridin-2-yl)-1,2,4-thiadiazol-5-ylamino)-5-(trifluoromethyl)pyridin-3-yl)-N-methylacetamide] |  |
|  | CC(C)c1cccnc1Nc1nc(-c2ccc(OC(F)F)cn2)ns1 [Compound 127, 3-(5-(difluoro-methoxy)pyridin-2-yl)-N-(3-isopropyl-pyridin-2-yl)-1,2,4-thiadiazol-5-amine] | < 200 nM |
|  | c1ccc(-c2nsc(Nc3ccc(N4CCCC4)cn3)n2)nc1 [Cmpd 8, 3-(pyridin-2-yl)-N-(5-(pyrrolidin-1-yl)pyridin-2-yl)-1,2,4-thiadiazol-5-amine] | < 200 nM |
|  | COC(=O)c1cc(-c2nsc(Nc3ncccc3C)n2)ncc1OC(C)C [Compound 196, methyl 5-isopropoxy-2-(5-(3-methylpyridin-2-ylamino)-1,2,4-thiadiazol-3-yl)isonicotinate] | 200 to 500 nM |
| 500 to 5000 nM | CC(=O)N(C)c1cnc(Nc2nc(-c3ccc(OC(C)C)cn3)ns2)c(C(F)(F)F)c1 [Compound 300, N-(6-(3-(5-isopropoxypyridin-2-yl)-1,2,4-thiadiazol-5-ylamino)-5-(trifluoromethyl)pyridin-3-yl)-N-methylacetamide] |  |

| SMILES | IC50 [2] | IC50 [1] |
| --- | --- | --- |
| CC(=O)N(C)c1cc(C(F)(F)F)cnc1Nc1nc(-c2cc3c(cn2)N(C(C)C)CC3)ns1 [Compound 273, N-(2-(3-(1-isopropyl-2,3-dihydro-1H-pyrrolo[2,3-c]pyridin-5-yl)-1,2,4-thiadiazol-5-ylamino)-5-(trifluoromethyl)pyridin-3-yl)-N-methylacetamide] | 200 to 500 nM |  |
